According to patent US20050020671A1, “Pharmaceutical formulation” (priority 2001, published 2005):
Structures can show the parent of a compound that is named as a salt.

Assay: chemical compatibility of ranitidine hydrochloride and acetylsalicylic acid in contact
Type: physicochemical
Conditions: the two actives in physical contact; degradation products form, reaction manifest in a matter of days
Source text: British Patent No 2,105,193 discloses pharmaceutical compositions comprising a systemic non-steroidal anti-inflammatory drug and ranitidine or a physiologically acceptable salt thereof. […] These two active ingredients react chemically with each other to produce degradation products. The reaction becomes manifest in a matter of days and implies a serious stability problem for pharmaceutical compositions containing both active ingredients.

chemical compatibility with acetylsalicylic acid: clear chemical incompatibility
Structure (SMILES): CNC(=C[N+](=O)[O-])NCCSCc1ccc(CN(C)C)o1 [ranitidine hydrochloride, N-[2-[[[5-(dimethylamino)methyl]-2-furanyl]methyl]thio]ethyl-N′-methyl-2-nitro-1,1-ethanediamine]
